Results reported in article PMC4459817, “Vasculotide reduces endothelial permeability and tumor cell extravasation in the absence of binding to or agonistic activation of Tie2” (EMBO Molecular Medicine, 2015).

Tested on: Tie2 in lung, kidney, liver homogenates
Test: in vivo Tie2 phosphorylation in liver, lungs, kidneys
Set-up: species or system mouse
Method: Tumor-free mice were treated for 1 week with either vehicle, VT (250 ng/2 days), SU (60 mg/kg/day), or VT+SU and then sacrificed 5 h after their last doses of treatment. Tissue homogenates derived from EC-rich organs (livers, lungs, kidneys) were subjected to Tie2 immunoprecipitation and then immunoblotted for phosphorylated Tie2 (Fig8: ‘p-Tie2’) or total Tie2 (Fig8: ‘Tie2’).
Figure 8 In vivo Vasculotide treatments: effects on Tie2 receptor phosphorylation in vascular-rich organs (liver, lungs, and kidneys) • Healthy non-tumor-bearing mice (n = 8–9 per group) were treated for 1 week with vehicle (Veh); Vasculotide 250 ng/2 days IP (VT); sunitinib 60 mg/kg/day PO (SU); or VT + SU. Tie2 immunoprecipitates from lung, kidney, or liver homogenates were pooled from two mice per treatment group and immunoblotted with an anti-Tie2 antibody (‘Tie2’) or an anti-phosphotyrosine antibody (‘p-Tie2’). • Densitometry analysis of immunoblots from (A). pTie2/Tie2 ratios were internally normalized to the vehicle group within each blot. Means ± SEM and P values (unpaired t-tests) are depicted. Source data are available online for this figure.
5. Bioluminescence imaging (BI) of tumor burden
For in vivo BI: Mice were injected intraperitoneally with 150mg/kg luciferin (Promega) 10 minutes prior to and anesthetized with isofluorane just before luminescent pseudocolor imaging (uniform settings: CCD camera locked at -105 °C, exposure=60s, f/1, subject size=1.5cm, bin=8, FOV=23.2cm, full image correction) using the IVIS 200 Imaging System (Caliper/PerkinElmer). Using the Living Image software (v2.50.1, Xenogen), weekly images were analyzed under uniform color range on grayscale photographic overlay. Total fluxes (photons/sec) were quantified within consistent regions of interest and statistically compared ideally at a timepoint before any deaths have occurred. […]
Quantification procedure involved visual survey of entire tissue sections and tallying of DAB-stained metastatic nodules sizes (# cells) at 20-40X on a Leica DM LB2 Microscope. […]

Row | Molecule | Tie2 phosphorylation, sunitinib effect (SU 60 mg/kg/day, stated in Discussion) | ratio of phosphorylated Tie2 relative to total Tie2 (pTie2/Tie2) (1 week, VT 250 ng/2 days IP, SU 60 mg/kg/day PO or VT + SU, liver, lungs, kidneys, n = 8–9, Fig8) | lung-specific pTie2/Tie2 vs. vehicle (VT 250 ng/2 days IP, 1 week, unpaired t-test, Fig8)
1 | CCN(CC)CCNC(=O)c1c(C)[nH]c(/C=C2\C(=O)Nc3ccc(F)cc32)c1C [sunitinib, reference compound] | inhibition of Tie2 phosphorylation |  | 
2 | CHHHRHSF [Vasculotide, 4-armed maleimide-functionalized polyethylene glycol (PEG) backbone to link together four cysteine-capped T7 peptides, that is, CHHHRHSF] |  | did not increase the ratio of phosphorylated Tie2 relative to total Tie2 | significantly lower
